This is an account of results in publication PMC7177833, “2-Aminopyridine Analogs Inhibit Both Enzymes of the Glyoxylate Shunt in Pseudomonas aeruginosa” (International Journal of Molecular Sciences, 2020).

Data set [1] deals with T1, MSPa (malate synthase G from P. aeruginosa) (Pseudomonas aeruginosa, UniProt Q9I636).
T1 construct: made in house
The data set can be described thus: Inhibition of purified MSPa enzymatic activity. Format: biochemical. The settings on record: for inhibition at 75 µM: read-out: Enzyme Inhibition (%) at 75 µM MSPa. The protocol:
The enzymatic activity of purified ICLPa and MSPa was assayed essentially as previously described. Compounds were added to the reaction mixtures (minus substrates) and incubated for 5 min at 37 °C. The enzyme concentration in the reaction mixtures was 170 nM for ICL and 25 nM for MS (based on the concentration of the monomer in each case). […] The reactions were initiated by the addition of pH-adjusted substrates, and the initial rates were recorded as A324 nm (for ICLPa) and A412 nm (for MSPa) using a Biospectrometer (Eppendorf, Stevenage, UK). Substrate turnover was calculated from the molar extinction coefficient of the assay products: Glyoxylate-phenylhydrazone (16,800/M/cm) for ICLPa and 2-nitro-5-thiobenzoic acid (14,150/M/cm) for MSPa.
All data fitting was performed with GraphPad Prism version 7.04 (GraphPad Software, Inc., La Jolla, CA, USA). The solid lines are the result of fitting the data to the equations denoted in relevant experimental sections. IC50 values were determined by a nonlinear fit using the equation for sigmoidal dose-response with variable slope. In all graphs, unless otherwise stated, the data points are the mean of experimental triplicates, and all error bars correspond to ± standard deviation.

The next data set concerns the target T2, CYP1A2 (Homo sapiens, UniProt P05177).
T2 sequence (P05177 1-516): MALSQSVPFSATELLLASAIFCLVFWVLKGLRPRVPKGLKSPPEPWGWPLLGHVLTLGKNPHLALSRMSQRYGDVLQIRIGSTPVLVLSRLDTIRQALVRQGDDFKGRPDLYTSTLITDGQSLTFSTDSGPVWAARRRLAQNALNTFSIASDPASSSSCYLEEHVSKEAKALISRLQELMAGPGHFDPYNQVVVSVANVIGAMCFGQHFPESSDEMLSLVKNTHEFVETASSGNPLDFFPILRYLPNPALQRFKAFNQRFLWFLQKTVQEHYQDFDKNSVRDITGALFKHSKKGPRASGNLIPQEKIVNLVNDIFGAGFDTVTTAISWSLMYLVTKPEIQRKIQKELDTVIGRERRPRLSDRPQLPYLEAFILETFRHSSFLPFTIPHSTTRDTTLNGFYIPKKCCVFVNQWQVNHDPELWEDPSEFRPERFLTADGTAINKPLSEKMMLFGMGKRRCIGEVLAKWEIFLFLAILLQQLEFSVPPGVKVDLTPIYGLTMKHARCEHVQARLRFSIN
Briefly: CYP450 inhibition in HLM, phenacetin probe. The protocol: The CYP450 inhibition was determined by measuring the reaction products of known CYP450 substrates (probes). Probe solutions were prepared by diluting stock solutions with buffer (100 mM Tris-HCl, pH 7.5, and 0.5 mM EDTA) to the final indicated concentrations (Figure 5), and adding 180 µL of pooled human liver microsomes (20 mg/mL) (BioIVT, West Sussex, UK). These probe solutions were dispensed (195 µL) into clear 96-well plates with low evaporation lids (Corning, Turin, Italy) and the plates were prewarmed to 37 °C in a thermomixer (Hamilton, Agrate Brianza, Italy). Next, 5 µL of the test compound or appropriate positive control (Table S4) were added to the wells and the plates were incubated for a further 5 min. Following this, the reactions were started by adding NADPH regenerating solution (50 µL, see previous Section 4.7) to each well. CYP450 mixtures containing phenacetin, rosiglitazone, mephenytoin, atorvastatin, and nifedipine probes were incubated for 10 min at 37 °C, whereas those with midazolam and diclofenac were incubated for 5 min at 37 °C. Aliquots (100 µL) from each reaction mixture were quenched in 200 µL acetonitrile, and the mixtures were sedimented at 3000 ×g for 10 min at 4 °C. The supernatants were diluted in water containing 5 ng/mL Rolipram as an internal standard for LC-MS/MS analysis. All incubations were carried out in triplicate.
Probe products were analyzed on an API4000 Qtrap mass spectrometer (Applied Biosystems/MDS SCIEX, Monza, Italy) coupled with an Acquity UPLC system (Waters, Milan, Italy) and a CTC-PAL auto-injector (CTC Analytics AG, Zwingen, Switzerland). […] The column temperature was maintained at 60 °C. The injected sample volume was 10 µL, and analytes were eluted at a flow rate of 800 µL/min in a gradient of eluent A (water with 0.1% formic acid) and eluent B (acetonitrile with 0.1% formic acid). […] The analytes were quantified in multiple reaction-monitoring mode. Data were processed, and the percentage control activity was calculated based on a comparison between the ratio of the sample peak area and the peak area.

A short description of data set [2]: CytoTox 96 LDH release cytotoxicity assay, U937. Format: cell-based, human. The note with it: human; U937 cells, LDH release. As to the method:
(§1) The CytoTox 96® nonradioactive cytotoxicity assay (Promega, Madison, WI, USA) was performed to determine the number of cells affected by necrosis measuring LDH release. A U937 cell suspension (5 × 10^5 cells/mL) was prepared, and 99.5 µL of this suspension were added to the wells of clear, sterile, 96-well, U-bottomed plates (Greiner, Dungannon, UK). The test compounds (0.5 µL of a 200 × concentrated stock) or 0.5% DMSO (control) were added to each well, and the plates were shaken for 1 min at 100 rpm, followed by 3.5 h at 37 °C with 5% CO2. At this point, CytoTox 96® 10× lysis solution was added to the wells reserved for total lysis. These samples represented the LDH released following complete cell lysis. After 30 min, 50 µL of supernatant from each test well and total lysis well was transferred to new 96-well plates (Thermo Fisher Scientific, Bishop’s Stortford, UK). Prethawed CytoTox 96® buffer was mixed with the CytoTox 96® substrate, and 50 µL were added into each well. The plates were incubated for 10 min in darkness at 25 °C. CytoTox 96® stop buffer (50 µL) was added, and the plates were incubated for a further 15 min. LDH release was quantified by measuring A492 nm in a CLARIOstar® multimode microplate reader (BMG Labtech, Aylesbury, UK).

In another data set the test system is U937 cells. Briefly: CytoTox 96 LDH release cytotoxicity assay, U937. Format: cell-based, human. The note with it: IC50 cytotoxicity/IC50 P. aeruginosa growth inhibition in M9 acetate. The protocol:
as §1

“And” between values parts separate entries of the source, which are not always exact repeats. Identical values can stand only once.

T1 sequence (Q9I636 whole entry): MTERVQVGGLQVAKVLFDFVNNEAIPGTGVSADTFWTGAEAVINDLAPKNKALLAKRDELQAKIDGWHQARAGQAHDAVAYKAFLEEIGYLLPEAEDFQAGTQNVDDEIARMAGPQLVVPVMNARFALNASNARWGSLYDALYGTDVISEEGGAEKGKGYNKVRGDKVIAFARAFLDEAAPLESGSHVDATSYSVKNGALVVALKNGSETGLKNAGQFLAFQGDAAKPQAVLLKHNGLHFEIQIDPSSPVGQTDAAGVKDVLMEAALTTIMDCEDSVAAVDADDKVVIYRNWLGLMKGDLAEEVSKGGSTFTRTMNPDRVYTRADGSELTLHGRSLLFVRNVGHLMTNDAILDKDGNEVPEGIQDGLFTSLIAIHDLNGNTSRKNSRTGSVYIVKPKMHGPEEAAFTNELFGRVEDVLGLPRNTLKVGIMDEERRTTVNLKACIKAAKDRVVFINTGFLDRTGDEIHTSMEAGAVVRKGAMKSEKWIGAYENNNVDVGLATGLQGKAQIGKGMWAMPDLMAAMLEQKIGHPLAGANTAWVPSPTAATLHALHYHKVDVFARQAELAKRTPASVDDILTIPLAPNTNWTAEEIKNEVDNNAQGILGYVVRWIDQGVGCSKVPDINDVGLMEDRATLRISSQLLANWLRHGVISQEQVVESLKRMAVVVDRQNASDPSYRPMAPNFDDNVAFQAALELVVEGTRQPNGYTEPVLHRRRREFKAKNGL

With `CC(C)(C)OC(=O)/N=C(\NC(=O)OC(C)(C)C)Nc1cc(C#N)ccn1` [SB023], the values for the IC50 (in data set [1]; on CYP1A2) were 14.5 µM and over 100 µM, respectively. Besides, the inhibition at 75 µM in data set [1] (75 µM compound) stood at 90.4%. The molecule also showed a 50% inhibitory concentration (IC50) at 3.5 h in data set [2] of 3220 µM. Besides, the “Therapeutic index U937” value in the data set on U937 cells is 364 and 364.37.

`CC(C)(C)OC(=O)/N=C(\NC(=O)OC(C)(C)C)Nc1cc(Cl)ccn1` [SB002] had an IC50 in data set [1] of 4.5 µM. In data set [1] (75 µM compound), the “Enzyme Inhibition (%) at 75 µM MSPa” value is on record as 94.5% and the inhibition at 75 µM was over 90%. For the same molecule, the IC50 at CYP1A2 was over 100 µM. Besides, inhibition in data set [2] was half-maximal at 18.2 µM (IC50 at 3.5 h). Further, in the data set on U937 cells, the “Therapeutic index U937” value was 17 and 17.31.

For the molecule `Nc1cc(Cl)ccn1` [Compound 2-AP, 2-amino-4-chloropyridine, reference compound], the figures for the concentration for half-maximal inhibition (IC50) (in data set [1]; at CYP1A2) were over 75 µM and over 100 µM, respectively. In data set [1] (75 µM compound), the inhibition at 75 µM was 18.2%.
